#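 Where inhibition never reached the appropriate level, the endpoint shown equals the highest concentration tested. Otherwise, values were interpolated linearly from a five-concentration, 48-hour dose response in 96-well plates. At the GI50, growth is halved.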 The source made the active and inactive calls. Cut-off read from the data, not from the text of the source: active = GI50 up to about 1.1 µM and inactive = higher.
# How the values were obtained:
# Assay in all cases: growth of human tumour cells (NCI), 48 h
# A549 = tested on: A549
# ACHN = tested on: ACHN
# CAKI-1 = tested on: CAKI-1
# CCRF-CEM = tested on: CCRF-CEM
# HCC 2998 = tested on: HCC 2998
# HCT-15 = tested on: HCT-15
# HOP-62 = tested on: HOP-62
# HOP-92 = tested on: HOP-92
# HT-29 = tested on: HT-29
# K562 = tested on: K562
# MDA-MB-435 = tested on: MDA-MB-435
# NCI-H226 = tested on: NCI-H226
# OVCAR-5 = tested on: OVCAR-5
# RPMI-8226 = tested on: RPMI-8226
# RXF 393 = tested on: RXF 393
# SF-268 = tested on: SF-268
# SK-MEL-5 = tested on: SK-MEL-5
# SK-OV-3 = tested on: SK-OV-3
# SR = tested on: SR
# T47D = tested on: T47D
Compound,GI50 (A549),GI50 (ACHN),GI50 (CAKI-1),GI50 (CCRF-CEM),GI50 (HCC 2998),GI50 (HCT-15) [µM],GI50 (HOP-62),GI50 (HOP-92),GI50 (HT-29),GI50 (K562),GI50 (MDA-MB-435),GI50 (NCI-H226),GI50 (OVCAR-5),GI50 (RPMI-8226),GI50 (RXF 393),GI50 (SF-268),GI50 (SK-MEL-5),GI50 (SK-OV-3),GI50 (SR),GI50 (T47D)
OCCOc1ccc(-c2cc(-c3ccccn3)nc(-c3ccccn3)c2)cc1,0.172 µM (active),0.0661 µM (active),0.398 µM (active),0.0618 µM (active),0.0578 µM (active),0.0574,0.106 µM (active),0.499 µM (active),0.112 µM (active),0.107 µM (active),0.526 µM (active),0.661 µM (active),0.192 µM (active),0.242 µM (active),0.337 µM (active),0.107 µM (active),0.23 µM (active),0.308 µM (active),0.11 µM (active),0.553 µM (active)
CC(C)=CCc1c2c(c3occ(-c4ccc(O)c(O)c4)c(=O)c3c1O)C=CC(C)(C)O2 [POMIFERIN],2.55 µM (inactive),2.39 µM (inactive),1.55 µM (inactive),0.723 µM (active),1.22 µM (inactive),1.91,1.89 µM (inactive),2.07 µM (inactive),1.84 µM (inactive),2.29 µM (inactive),1.75 µM (inactive),16.9 µM (inactive),7.82 µM (inactive),1.67 µM (inactive),2.39 µM (inactive),1.87 µM (inactive),2.96 µM (inactive),6.71 µM (inactive),0.204 µM (active),1.86 µM (inactive)
CCN(CC)c1ccc(/C=C(\C#N)c2nc(N)nc(N3N=C(C)CC3(C)C)n2)cc1,16.2 µM (inactive),14.7 µM (inactive),15.1 µM (inactive),19.1 µM (inactive),30.1 µM (inactive),> 59.3,11.1 µM (inactive),6.97 µM (inactive),18.8 µM (inactive),> 38.1 µM (inactive),21.1 µM (inactive),2.9 µM (inactive),26.7 µM (inactive),32 µM (inactive),8.93 µM (inactive),15 µM (inactive),21.6 µM (inactive),6.61 µM (inactive),12.2 µM (inactive),17.2 µM (inactive)
Cc1c2cccc(Sc3ccccc3)c2c2c3c(cccc13)[S+](c1ccccc1)C2 (stereo not given),2.88 µM (inactive),4.04 µM (inactive),3.19 µM (inactive),1.77 µM (inactive),1.66 µM (inactive),10.4,1.89 µM (inactive),2.03 µM (inactive),1.47 µM (inactive),0.408 µM (active),1.75 µM (inactive),2.33 µM (inactive),3.03 µM (inactive),0.221 µM (active),3.86 µM (inactive),3.13 µM (inactive),0.748 µM (active),1.84 µM (inactive),0.838 µM (active),0.526 µM (active)
O=C(c1ccccc1)c1nc2ccc(Cl)cc2cc1C(Br)Br,1.44 µM (inactive),0.263 µM (active),0.552 µM (active),0.395 µM (active),0.316 µM (active),0.31,0.641 µM (active),0.527 µM (active),0.197 µM (active),0.244 µM (active),0.282 µM (active),1.68 µM (inactive),0.519 µM (active),0.229 µM (active),0.216 µM (active),0.384 µM (active),0.692 µM (active),0.605 µM (active),1.68 µM (inactive),0.2 µM (active)
CCOC(=O)C(=O)/C(=C/N1C(=O)CC(=O)NC1=S)C(=O)OCC,> 100 µM (inactive),> 100 µM (inactive),> 100 µM (inactive),> 100 µM (inactive),> 100 µM (inactive),> 100,> 100 µM (inactive),9.29 µM (inactive),> 100 µM (inactive),> 100 µM (inactive),> 100 µM (inactive),> 100 µM (inactive),> 100 µM (inactive),> 100 µM (inactive),> 100 µM (inactive),> 100 µM (inactive),> 100 µM (inactive),> 100 µM (inactive),> 100 µM (inactive),> 100 µM (inactive)
O=C1/C(=C/c2ccccc2)CCc2ccc(Cl)nc21,16.6 µM (inactive),11.9 µM (inactive),3.77 µM (inactive),1.43 µM (inactive),17 µM (inactive),3.52,19.7 µM (inactive),15.8 µM (inactive),1.92 µM (inactive),2.17 µM (inactive),6.5 µM (inactive),20.6 µM (inactive),17.3 µM (inactive),2.84 µM (inactive),8.2 µM (inactive),12.1 µM (inactive),5.31 µM (inactive),31.6 µM (inactive),2.8 µM (inactive),4.85 µM (inactive)
C=C(Cl)[C@@](Cl)(CBr)CC[C@@H](Br)C(C)(C)Cl,1.43 µM (inactive),0.149 µM (active),0.467 µM (active),15.8 µM (inactive),0.488 µM (active),0.759,0.103 µM (active),0.292 µM (active),0.253 µM (active),0.473 µM (active),1.4 µM (inactive),26.2 µM (inactive),1.59 µM (inactive),0.0566 µM (active),0.126 µM (active),0.251 µM (active),2.67 µM (inactive),9.16 µM (inactive),15.4 µM (inactive),0.153 µM (active)
COCN1C(=O)[C@@H]2CCCN2C(=O)c2ccc([N+](=O)[O-])cc21,> 100 µM (inactive),> 100 µM (inactive),> 100 µM (inactive),> 100 µM (inactive),> 100 µM (inactive),> 100,> 100 µM (inactive),> 100 µM (inactive),> 100 µM (inactive),> 100 µM (inactive),> 100 µM (inactive),> 100 µM (inactive),> 100 µM (inactive),> 100 µM (inactive),> 100 µM (inactive),> 100 µM (inactive),> 100 µM (inactive),> 100 µM (inactive),48.4 µM (inactive),> 100 µM (inactive)
NNC(=O)CC(=O)Nc1cccc(Cl)c1,> 100 µM (inactive),> 100 µM (inactive),> 100 µM (inactive),> 100 µM (inactive),> 100 µM (inactive),> 100,> 100 µM (inactive),47.3 µM (inactive),> 100 µM (inactive),> 100 µM (inactive),> 100 µM (inactive),> 100 µM (inactive),> 100 µM (inactive),> 100 µM (inactive),> 100 µM (inactive),> 100 µM (inactive),> 100 µM (inactive),> 100 µM (inactive),> 100 µM (inactive),> 100 µM (inactive)
[N-]=[N+]=CC(=O)C1CCCN1C(=O)c1ccccc1 (stereo not given),> 10 µM (inactive),> 10 µM (inactive),> 10 µM (inactive),> 10 µM (inactive),> 10 µM (inactive),> 10,> 10 µM (inactive),> 10 µM (inactive),> 10 µM (inactive),> 10 µM (inactive),> 10 µM (inactive),> 10 µM (inactive),> 10 µM (inactive),> 10 µM (inactive),> 10 µM (inactive),> 10 µM (inactive),> 10 µM (inactive),> 10 µM (inactive),> 10 µM (inactive),> 10 µM (inactive)
